# pIC50: −log10 of the molar value. Read-outs that look alike come from different tables or passages of the source.
# Tests used:
# [1] = system: Jurkat human T lymphocyte cell line; experiment: Apoptosis assay (Annexin V) of compounds incubated with human serum; conditions: for % apoptotic cells at given concentration (nM): Table 4
# Protocol: (§1) Compounds of formula I, as shown in Table 1 above and in the Examples, were assayed for their capacity to induce apoptosis in cells from the Jurkat human T lymphocyte cell line, after incubation with pooled human serum for varying periods of time at 37° C. (see Example 19). An ester prodrug, triptolide-14-succinate, designated PG490-88, was included for comparison. The extent of conversion to triptolide after such incubation was also independently determined by HPLC analysis.
# The ED50 values (column 3) are calculated directly from the data in each experiment, and the % conversion values (column 4) are calculated as percent of the ED50 value produced by triptolide, designated PG490, incubated in the same plasma (i.e. in the same experiment).
# A. Incubation of compounds with human serum. Pooled human serum was stored in aliquots at −80° C. Test compounds were added at 20 mM to thawed human serum in 1.5 ml microfuge tubes and incubated at 37° C. in a water bath for varying periods of time. The test samples were placed on ice until dilution for the bioassay. Controls consisted of the compounds incubated in complete tissue culture medium (RPMI 1640 medium plus 5% heat-inactivated fetal calf serum, 1% HEPES, 1% pen/strep, 1% glutamine) rather than human serum.
# B. Apoptosis assay of compounds incubated with human serum. Test samples were diluted to 1 mM in complete tissue culture medium. Aliquots were placed in microculture plates and serial dilutions were prepared so that the final concentration would encompass the range of 1 to 10,000 nM with half-log increments. Cells from an exponentially expanding culture of the Jurkat human T lymphocyte cell line (#TIB-152 obtained from American Type Culture Collection, Manassas, Va.) were harvested, washed once by centrifugation and dilution in complete tissue culture medium, and diluted to a concentration of 1×10^6 cells/ml. A volume of 100 μl of Jurkat cells (1×10^5 cells) was added to wells containing 100 μl of the diluted compounds, and the plates were incubated at 37° C. in a 5% CO2 incubator. After 24 hours, the plates were centrifuged to pellet the cells, and the cells were washed twice with 2% heat-inactivated fetal calf serum in PBS. To each well, 500 ul of binding buffer was added according to the Annexin V assay procedure (BioVision, Inc., Mountain View, Calif.). Next, 5 μl of the fluorescein isothiocyanate (FITC) conjugate of Annexin V (BioVision, Inc.) was added to each well, followed by 5 minutes of incubation in the dark. In some assays, propidium iodide (BioVision, Inc.) was added at this stage to check for necrotic cells. The contents of the wells were individually transferred into test tubes, and apoptosis was analyzed using a FACSCalibur flow cytometer (BD Immunocytometry Systems, San Jose, Calif.). Cells positive for Annexin V binding were considered to be apoptotic, and the data were calculated as percent apoptotic cells.
# C. Comparison of bioactivities after incubation of compounds in human serum. The data were plotted as the concentration of compound incubated in serum versus percent apoptotic cells. The concentration of compound inducing 50% apoptosis (ED50) was calculated from these dose response curves. […] This percentage conversion was used to compare the bioactivity of various compounds after incubation in human serum.
# in vitro = conditions: for half-life: human, plasma; for max. conversion at 48 hr in human plasma by HPLC: incomplete conversion to triptolide, 48 hr incubation
# Protocol: as §1
# Prodrug conversions to triptolide as determined independently by HPLC are given in […].
# [2] = system: IL-2 production in Jurkat human T lymphocyte cells; experiment: IL-2 production assay for activity of compounds incubated with human serum; conditions: for pIC50: IL-2 production in Jurkat cells after incubation with pooled human serum for 48 hours at 37° C.; for Conversion (%): percent of the IC50 value produced by triptolide (PG490) in the same experiment, human serum 48 hours; for IL-2 pg/mL at given concentration (nM): Table 8, Jurkat cells
# Protocol: Several compounds of formula I were analyzed for their capacity to inhibit IL-2 production in Jurkat human T lymphocyte cells, after incubation with pooled human serum for 48 hours at 37° C. (see Example 20). An ester prodrug, triptolide-14-succinate, designated PG490-88, was included for comparison.
# The IC50 values (column 1) are calculated directly from the data in each experiment. The % conversion values (column 2) are calculated as the percent of the IC50 value produced by triptolide, designated PG490, incubated in the same plasma (i.e. in the same experiment).
# A. IL-2 production assay for activity of compounds incubated with human serum. Test samples were diluted to 1 mM in complete tissue culture medium. […] Cells from an exponentially expanding culture of the Jurkat human T lymphocyte cell line (#TIB-152 obtained from American Type Culture Collection, Manassas, Va.) were harvested, washed once by centrifugation and dilution in complete tissue culture medium, and diluted to a concentration of 2×10^6 cells/ml. A volume of 50 μl of Jurkat cells (1×10^5 cells) was added to wells containing 100 μl of the diluted compounds, 50 μl of PMA (10 ng/ml) was added to each well, and the plates were incubated at 37° C. in a 5% CO2 incubator. After 24 hours, the plates were centrifuged to pellet the cells, 150 μl of supernatant was removed from each well, and the samples were stored at −20° C. The stored supernatants were analyzed for human IL-2 concentration using the Luminex 100 (Luminex Corporation, Austin, Tex.), Luminex microspheres coupled with anti-IL-2 capture antibody, and fluorochrome-coupled anti-IL-2 detection antibody. The data were expressed as ng/ml of IL-2.
# B. Comparison of bioactivities after incubation of compounds in human serum. The data were plotted as the concentration of compound incubated in serum versus IL-2 concentration. The concentration of compound inducing a 50% decrease in the IL-2 concentration (IC50) was calculated from these dose response curves. […] This percentage conversion was used to compare the bioactivity of various compounds after incubation in human serum.
# [3] = Homo sapiens, Jurkat, 48 h, read-out: ED50 (nM) in apoptosis assay after incubation with serum, incubation time in human serum 48 hours, 37° C.
# [4] = incubation time in human serum 48 hours
# [5] = incubation time in human serum 1 hour
# [6] = Homo sapiens, Jurkat, 0.5 h, read-out: ED50 (nM) in apoptosis assay after incubation with serum, incubation time in human serum 0.5 hours, 37° C.
# [7] = incubation time in human serum 0.5 hours
smiles,measurement,setting,value
"CC(C)[C@]12O[C@H]1[C@@H]1O[C@]13[C@]1(O[C@H]1C[C@H]1C4=C(CC[C@@]13C)C(=O)OC4)[C@@H]2OC(=O)Oc1ccccc1 [PG676, Triptolide 14-Phenyl Carbonate]",EC50,[1]; [3],56 nM
same,"Conversion, as relative ED50 compared to triptolide (%)",[1]; [4],96%
same,half-life,in vitro,15 min
same,pIC50,"[2]; Homo sapiens, Jurkat, 48 h",8.22
same,Conversion (%),[2],84%
"CC(C)[C@]12O[C@H]1[C@@H]1O[C@]13[C@]1(O[C@H]1C[C@H]1C4=C(CC[C@@]13C)C(=O)OC4)[C@@H]2OC(=O)OCCN(C)C.Cc1ccc(S(=O)(=O)O)cc1 [PG682PTSA, p-Toluenesulfonate Salt of Triptolide 14-Dimethylaminoethyl Carbonate]","Conversion, as relative ED50 compared to triptolide (%)",[1]; [5],89%
same,EC50,"[1]; read-out: ED50 (nM) in apoptosis assay after incubation with serum, incubation time in human serum 1 hour, 37° C.",57 nM
same,half-life,in vitro,17 min
same,pIC50,[2],8.70
same,Conversion (%),[2],97%
"COC(=O)COC(=O)O[C@@H]1[C@@]2(C(C)C)O[C@H]2[C@@H]2O[C@]23[C@]12O[C@H]2C[C@H]1C2=C(CC[C@@]13C)C(=O)OC2 [PG680, Triptolide 14-Methoxycarbonylmethyl Carbonate]",EC50,[1]; [3],58 nM
same,"Conversion, as relative ED50 compared to triptolide (%)",[1]; [4],85%
same,half-life,in vitro,9 min
same,pIC50,"[2]; Homo sapiens, Jurkat, 48 h",8.52
same,Conversion (%),[2],44%
"CCOC(=O)O[C@@H]1[C@@]2(C(C)C)O[C@H]2[C@@H]2O[C@]23[C@]12O[C@H]2C[C@H]1C2=C(CC[C@@]13C)C(=O)OC2 [PG674, Triptolide 14-Ethyl Carbonate]",EC50,[1]; [6],27 nM
same,EC50,"[1]; Homo sapiens, Jurkat, 1 h, read-out: ED50 (nM) in apoptosis assay after incubation with serum, incubation time in human serum 1 hour, 37° C.",55 nM
same,EC50,"[1]; Homo sapiens, Jurkat, 24 h, read-out: ED50 (nM) in apoptosis assay after incubation with serum, incubation time in human serum 24 hours, 37° C.",60 nM
same,EC50,[1]; [3],65 nM
same,"Conversion, as relative ED50 compared to triptolide (%)",[1]; [7],188%
same,"Conversion, as relative ED50 compared to triptolide (%)",[1]; [5],98%
same,"Conversion, as relative ED50 compared to triptolide (%)",[1]; incubation time in human serum 24 hours,97%
same,"Conversion, as relative ED50 compared to triptolide (%)",[1]; [4],100%
same,half-life,in vitro,12 min
"CC(C)[C@]12O[C@H]1[C@@H]1O[C@]13[C@]1(O[C@H]1C[C@H]1C4=C(CC[C@@]13C)C(=O)OC4)[C@@H]2OC(=O)OCC(=O)[O-].[Na+] [PG687Na, Sodium Salt of Triptolide 14-Hydroxycarbonylmethyl Carbonate]",max. conversion at 48 hr in human plasma by HPLC,in vitro,10%
same,pIC50,[2],7.04
same,Conversion (%),[2],1%
"CC(C)[C@]12O[C@H]1[C@@H]1O[C@]13[C@]1(O[C@H]1C[C@H]1C4=C(CC[C@@]13C)C(=O)OC4)[C@@H]2OC(=O)OCC(=O)O [PG687, Triptolide 14-Hydroxycarbonylmethyl Carbonate]","Conversion, as relative ED50 compared to triptolide (%)",[1]; [4],6%
same,max. conversion at 48 hr in human plasma by HPLC,in vitro,10%
same,pIC50,"[2]; Homo sapiens, Jurkat, 48 h",7.21
same,Conversion (%),[2],2%
"CC(C)[C@]12O[C@H]1[C@@H]1O[C@]13[C@]1(O[C@H]1C[C@H]1C4=C(CC[C@@]13C)C(=O)OC4)[C@@H]2OC(=O)Nc1ccccc1 [PG671, Triptolide 14-Phenyl Carbamate]",conversion in human serum (in words),[1],less readily converted
same,% apoptotic cells at given concentration (nM),"[1]; medium, 10000 nM",13.7%
same,% apoptotic cells at given concentration (nM),"[1]; serum, 0 hr, 10000 nM",10.2%
same,% apoptotic cells at given concentration (nM),"[1]; serum, 48 hr, 0.03 nM",42.5%
same,% apoptotic cells at given concentration (nM),"[1]; serum, 48 hr, 0.1 nM",43.3%
same,% apoptotic cells at given concentration (nM),"[1]; serum, 48 hr, 0.3 nM",43.9%
same,% apoptotic cells at given concentration (nM),"[1]; serum, 48 hr, 1 nM",44.2%
same,% apoptotic cells at given concentration (nM),"[1]; serum, 48 hr, 3 nM",43.2%
same,% apoptotic cells at given concentration (nM),"[1]; serum, 48 hr, 10 nM",42.4%
same,% apoptotic cells at given concentration (nM),"[1]; serum, 48 hr, 30 nM",44.7%
same,% apoptotic cells at given concentration (nM),"[1]; serum, 48 hr, 100 nM",43.5%
same,% apoptotic cells at given concentration (nM),"[1]; serum, 48 hr, 300 nM",43.1%
same,% apoptotic cells at given concentration (nM),"[1]; serum, 48 hr, 1000 nM",43.0%
same,% apoptotic cells at given concentration (nM),"[1]; serum, 48 hr, 3000 nM",43.3%
same,% apoptotic cells at given concentration (nM),"[1]; serum, 48 hr, 10000 nM",15.4%
same,bioactivity in IL-2 inhibition assays (in words),[2]; FIGS. 4-5,some level of bioactivity
same,IL-2 pg/mL at given concentration (nM),[2]; 0.0001 nM,96.4 pg/mL
same,IL-2 pg/mL at given concentration (nM),[2]; 0.001 nM,102.7 pg/mL
same,IL-2 pg/mL at given concentration (nM),[2]; 0.01 nM,99.7 pg/mL
same,IL-2 pg/mL at given concentration (nM),[2]; 0.1 nM,114.7 pg/mL
same,IL-2 pg/mL at given concentration (nM),[2]; 1 nM,106.1 pg/mL
same,IL-2 pg/mL at given concentration (nM),[2]; 10 nM,90.7 pg/mL
same,IL-2 pg/mL at given concentration (nM),[2]; 100 nM,77.9 pg/mL
same,IL-2 pg/mL at given concentration (nM),[2]; 1000 nM,48.7 pg/mL
same,IL-2 pg/mL at given concentration (nM),[2]; 10000 nM,8.8 pg/mL
"CCOCCOC(=O)O[C@@H]1[C@@]2(C(C)C)O[C@H]2[C@@H]2O[C@]23[C@]12O[C@H]2C[C@H]1C2=C(CC[C@@]13C)C(=O)OC2 [PG679, Triptolide 14-Ethoxyethyl Carbonate]",EC50,[1]; [6],39 nM
same,"Conversion, as relative ED50 compared to triptolide (%)",[1]; [7],128%
same,half-life,in vitro,11 min
same,pIC50,"[2]; Homo sapiens, Jurkat, 48 h",7.92
same,Conversion (%),[2],11%
